Target: V1AR (AVP type 1A receptor) (Homo sapiens, UniProt P37288)
Assay: DAGR FRET assay, block of AVP-induced DAG generation at […]
Assay type: cell-based

V1AR (AVP type 1A receptor), sequence (P37288 whole entry): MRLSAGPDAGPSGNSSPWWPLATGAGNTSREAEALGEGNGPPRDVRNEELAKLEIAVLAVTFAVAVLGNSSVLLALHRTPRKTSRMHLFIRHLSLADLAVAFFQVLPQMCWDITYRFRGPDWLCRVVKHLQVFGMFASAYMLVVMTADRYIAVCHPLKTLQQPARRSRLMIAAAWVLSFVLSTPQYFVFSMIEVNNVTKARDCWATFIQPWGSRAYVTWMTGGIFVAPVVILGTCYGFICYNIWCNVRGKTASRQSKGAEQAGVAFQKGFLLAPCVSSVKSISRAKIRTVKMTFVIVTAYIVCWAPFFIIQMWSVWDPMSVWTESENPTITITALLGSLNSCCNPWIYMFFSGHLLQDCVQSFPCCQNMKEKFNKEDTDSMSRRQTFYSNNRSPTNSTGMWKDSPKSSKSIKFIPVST

Q: For COc1ccc(S(=O)(=O)N2c3ccc(Cl)cc3[C@](O)(c3ccccc3Cl)[C@@H]2C(=O)N2CCC[C@H]2C(N)=O)cc1OC [SR 49059], which “DAGR FRET assay, block of AVP-induced DAG generation at 10 μM” value is on record?
A: it completely blocked AVP-dependent DAG production (Fig. 4E)

Reference: publication PMC4229385 (Circulation, 2014)
